Reference: patent EP0624573A1, “Iodo vitamin D3 compounds and method for preparing same” (WISCONSIN ALUMNI RESEARCH FOUNDATION, priority 1993, dated 1994)

Assays:
HL-60 cells = experiment: HL-60 differentiation assay, NBT (nitroblue tetrazolium reduction); format: cell-based, human; conditions: for percent of HL-60 cells having differentiated to monocytes: NBT assay, concentration of 1 x 10⁻⁷ molar (Fig. 1); for potency in promoting the differentiation of leukemia cells: in words, compared with 1α,25-dihydroxyvitamin D₃ (Fig. 1)
Experimental: This is illustrated by the biological assay results obtained for the claimed 22-iodo-vitamin D₃ compounds, which are summarized in Figs. 1 and 2, and Table 1. […] Differentiation activity was assessed by a standard differentiation assay, abbreviated in Fig. 1 as NBT (nitroblue tetrazolium reduction). The assay was conducted according to known procedures, as given, for example, by DeLuca et al U. S. Patent 4,717,721 and Ostrem et al, J. Biol. Chem. 262, 14164, 1987. For the assay, the differentiation activity of the test compounds is expressed in terms of the percent of HL-60 cells having differentiated to monocytes in response to a given concentration of test compound.

[1] = Bone calcium mobilization (serum calcium) in vitamin D-deficient, low calcium diet rats; format: in vivo; conditions: for Bone Calcium Mobilization (Serum Calcium): serum on day 7
Experimental: (§1) Rats were fed the vitamin D-deficient, low calcium (0.02%) diet for 3 weeks and then given the indicated dose in 0.1 ml propylene glycol:ethanol (95:5) intraperitoneally each day for 6 days. On day 7, serum was analyzed for calcium and the duodenum used to measure intestinal calcium transport as described by Martin et al. Am. J. Physiol.

[2] = Intestinal calcium transport in vitamin D-deficient, low calcium diet rats; format: in vivo; conditions: for Intestinal Calcium Transport (Serosal/Mucosal Ratio): duodenum on day 7
Experimental: as §1

[3] = dose 0.1 µg/d/6 days intraperitoneally
[4] = dose 1.0 µg/d/6 days intraperitoneally

SMILES	percent of HL-60 cells having differentiated to monocytes (HL-60 cells)	Bone Calcium Mobilization (Serum Calcium) [1, 3] [mg/100 ml]	Intestinal Calcium Transport (Serosal/Mucosal Ratio) [2, 3]	potency in promoting the differentiation of leukemia cells (HL-60 cells)	Bone Calcium Mobilization (Serum Calcium) [1, 4] [mg/100 ml]	bone calcium mobilizing activity ([1]; in words, 1µg per day for six days)	biological activity in intestinal calcium transport relative to that of 1,25-(OH)₂D₃ ([2]; Table 1 (1.0 µg/d versus 0.1 µg/d of 1,25-(OH)₂D₃))	Intestinal Calcium Transport (Serosal/Mucosal Ratio) [2, 4]
C=C1/C(=C\C=C2/CCC[C@]3(C)[C@@H]([C@H](C)CCCC(C)(C)O)CC[C@@H]23)C[C@@H](O)C[C@@H]1O [1,25-(OH)₂D₃, 1α,25-dihydroxyvitamin D₃, reference compound]	~90%	5.9 ± 0.3	11.2 ± 1.2	–	–	–	–	–
C=C1/C(=C\C=C2/CCC[C@]3(C)[C@@H]([C@H](C)[C@@H](I)CCC(C)(C)O)CC[C@@H]23)C[C@@H](O)C[C@@H]1O [compound 9, (22S)-iodo-1α,25-dihydroxyvitamin D₃]	the same degree of differentiation	–	–	as potent as 1α,25-dihydroxyvitamin D₃	4.9 ± 0.1	little or no bone calcium mobilizing activity	about double	22.8 ± 1.4
C=C1/C(=C\C=C2/CCC[C@]3(C)[C@@H]([C@H](C)[C@H](I)CCC(C)(C)O)CC[C@@H]23)C[C@@H](O)C[C@@H]1O [compound 11, (22R)-iodo-1α,25-dihydroxyvitamin D₃]	the same degree of differentiation	–	–	as potent as 1α,25-dihydroxyvitamin D₃	–	–	–	–
